Measurements from patent US7632857B2, “Histamine H3 receptor agents, preparation and therapeutic uses” (Eli Lilly and Company, priority 2004, dated 2009).

Target: T1, H3R (Homo sapiens, UniProt Q9Y5N1)
T1 construct: expressed in transfected cells; pcDNA3.1(+) vector, G418 selection)
Assay: [35S] GTP γ [S] binding assay, antagonist activity in the presence of agonist
Type: biochemical
Details: membranes from H3R8-expressing HEK293 cell line; agonist R(−)alpha methylhistamine
Protocol: Membranes isolated as described in (Preparation of Histamine Receptor Subtype Membranes) were used in a [35S]GTPχS functional assay. Binding of [35S]GTPχS to membranes indicates agonist activity. Compounds of the invention of Formula I or Formula II were tested for their ability to inhibit binding in the presence of agonists. Alternately, the same transfected cell lines were used for a cAMP assay wherein H3R agonists inhibited forskolin-activated synthesis of cAMP. Compounds of Formula I or Formula II were tested for their ability to permit forskolin-stimulated cAMP synthesis in the presence of agonist.
cDNA for the human histamine 3 receptor was cloned and expressed as described in (A. Preparation H1R membranes), above. Transfected cells were selected using G418 (500μ/ml), grown, and tested for histamine binding by the SPA described above. For total binding, cells were assayed in a SPA reaction described above containing 50 mM Tris-HCL (assay buffer), pH 7.6, 1 mg wheat germ agglutinin SPA beads (Amersham Pharmacia Biotech, #RPNQ0001), and 1 nM (3H)-n-alpha-methylhistamine (NEN, NET1027) (total volume per well=200 μl). Thioperimide was added to determine non-specific binding. […]
Antagonist activity of selected compounds was tested for inhibition of [35S] […] Plates were counted in Wallac Trilux 1450 Microbeta scintillation counter for 1 minute. […]

T1 sequence (Q9Y5N1 whole entry): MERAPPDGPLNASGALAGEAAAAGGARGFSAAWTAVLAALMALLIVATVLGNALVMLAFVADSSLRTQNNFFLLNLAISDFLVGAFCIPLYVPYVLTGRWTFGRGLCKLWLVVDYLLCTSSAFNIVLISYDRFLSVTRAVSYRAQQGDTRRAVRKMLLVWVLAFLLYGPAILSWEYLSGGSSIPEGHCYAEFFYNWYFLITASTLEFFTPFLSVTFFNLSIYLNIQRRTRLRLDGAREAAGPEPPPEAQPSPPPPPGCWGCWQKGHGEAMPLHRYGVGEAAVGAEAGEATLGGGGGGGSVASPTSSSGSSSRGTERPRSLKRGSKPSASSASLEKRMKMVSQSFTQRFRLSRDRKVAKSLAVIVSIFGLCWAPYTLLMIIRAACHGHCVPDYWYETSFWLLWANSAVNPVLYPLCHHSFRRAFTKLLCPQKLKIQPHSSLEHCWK

O=C(c1ccc(-c2ccccn2)cc1)N1CCC[C@H]1CN1CCCC1
Ki: 4.9 nM

O=C(c1ccc(-c2ccc(OCCN3CCCCC3)cc2)cc1)N1CCC[C@H]1CN1CCCC1
Ki: 32 nM
